Target: T1, human IR(B) (Homo sapiens, UniProt P06213)
T1 construct: expressed in transfected cells; host or cells: CHO cells (membrane preparation)
Assay: Insulin receptor binding assay (SPA, 125[I]-insulin competition)
Conditions: cell membranes from CHO cells overexpressing human IR(B)
Procedure: Cell membranes were prepared in 50 mM Tris buffer, pH 7.8 containing 5 mM MgCl2.

T1 sequence (P06213 28-758 limits assumed): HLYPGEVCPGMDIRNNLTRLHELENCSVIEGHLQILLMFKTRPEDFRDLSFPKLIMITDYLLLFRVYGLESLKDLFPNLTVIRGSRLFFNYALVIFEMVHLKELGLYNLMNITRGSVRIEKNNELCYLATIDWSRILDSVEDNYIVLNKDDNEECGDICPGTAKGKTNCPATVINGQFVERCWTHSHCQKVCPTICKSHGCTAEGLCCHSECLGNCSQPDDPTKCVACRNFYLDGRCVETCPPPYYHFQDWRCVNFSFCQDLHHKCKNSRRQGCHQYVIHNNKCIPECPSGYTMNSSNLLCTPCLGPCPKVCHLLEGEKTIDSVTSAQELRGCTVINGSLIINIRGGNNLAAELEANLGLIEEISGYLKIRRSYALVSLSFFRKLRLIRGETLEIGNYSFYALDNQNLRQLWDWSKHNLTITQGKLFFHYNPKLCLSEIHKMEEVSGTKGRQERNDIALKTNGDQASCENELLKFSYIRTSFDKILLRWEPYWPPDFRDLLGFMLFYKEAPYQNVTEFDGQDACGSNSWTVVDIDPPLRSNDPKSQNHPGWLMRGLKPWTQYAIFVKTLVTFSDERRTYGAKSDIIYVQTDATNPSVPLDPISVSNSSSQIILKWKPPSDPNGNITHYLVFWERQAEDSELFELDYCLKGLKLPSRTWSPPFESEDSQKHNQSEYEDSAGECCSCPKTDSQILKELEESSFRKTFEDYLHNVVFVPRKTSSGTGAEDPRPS
T1 sequence (P06213 763-1382 partner limits assumed): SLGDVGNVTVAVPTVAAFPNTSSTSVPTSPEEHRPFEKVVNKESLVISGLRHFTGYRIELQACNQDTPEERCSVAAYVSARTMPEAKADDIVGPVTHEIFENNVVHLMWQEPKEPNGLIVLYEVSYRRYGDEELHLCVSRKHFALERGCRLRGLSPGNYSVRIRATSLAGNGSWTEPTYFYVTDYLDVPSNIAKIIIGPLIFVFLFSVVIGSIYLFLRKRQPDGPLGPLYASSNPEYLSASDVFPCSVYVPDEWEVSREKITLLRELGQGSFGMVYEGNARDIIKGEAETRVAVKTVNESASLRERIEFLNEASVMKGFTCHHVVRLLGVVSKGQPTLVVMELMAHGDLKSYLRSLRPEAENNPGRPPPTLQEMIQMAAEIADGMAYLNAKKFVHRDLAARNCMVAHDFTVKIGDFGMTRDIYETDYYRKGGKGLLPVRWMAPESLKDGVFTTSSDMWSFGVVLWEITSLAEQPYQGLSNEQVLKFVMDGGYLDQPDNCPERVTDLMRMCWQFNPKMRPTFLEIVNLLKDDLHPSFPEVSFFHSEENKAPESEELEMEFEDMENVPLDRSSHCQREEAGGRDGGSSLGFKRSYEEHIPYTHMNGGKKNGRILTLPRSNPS

- IC50: 1.8 nM
Substance: N^6,B29, N^6,B29′-(C3-tartaric acid-C3)insulin human [Dimer 85]

From patent US10689430B2, “Insulin receptor partial agonists” (Merck Sharp & Dohme Corp., priority 2016, dated 2020)
